Several values for one entry are separate records, joined by “and”; a condition that tells them apart may be missing. Equal values may be shown once.
Experiments:
Assay type in all cases: in vivo
[1] = test system: Panicum maximum; assay: Post-emergence herbicidal action against Panicum maximum
Experimental: (§1) When the observed efficacies exceed the formal sum total of the values of the tests with individual applications, they also exceed the expected value according to Colby, which is calculated using the formula below and is likewise regarded as an indication of synergism (cf. S. R. Colby; in Weeds 15 (1967) p. 20 to 22): E^C=A+B−([…])
(§2) Here: • A=efficacy of the active compound (A) in % at an application rate of a g a.i./ha; • B=efficacy of the active compound (B) in % at an application rate of b g a.i./ha; • E^C=expected value of the effect of the combination (A)+(B) in % at the combined application rate a+b g a.i./ha.
(§3) Seeds or rhizome pieces of mono- and dicotyledonous weeds are placed in sandy loam in pots, covered with soil and grown in a greenhouse under good growth conditions (temperature, air humidity, water supply). Three weeks after sowing, the test plants were treated at the three-leaf stage with the compositions according to the invention. The compositions according to the invention formulated as spray powders or as emulsion concentrates were sprayed onto the green plant parts in various dosages with an application rate of 300 to 800 l/ha of water (equivalent). After the test plants have been left to stand in the greenhouse under optimal growth conditions for about 3 to 4 weeks, the action of the preparations is scored visually in comparison to untreated controls. The compositions according to the invention also have good post-emergence herbicidal activity against a broad spectrum of economically important gramineous and broadleaf weeds.

[2] = test system: Bellis perenne; assay: Post-emergence herbicidal action against Bellis perenne; settings: 100 g of a.i./ha
Experimental: as §1, §2
as §3, with “The compositions according to the invention also have good post-emergence herbicidal activity against a broad spectrum of economically important gramineous and broadleaf weeds.” left out

[3] = test system: Ephilobium hirsutum; assay: Post-emergence herbicidal action against Ephilobium hirsutum; settings: 100 g of a.i./ha
Experimental: as §1, §2
as §3, with “The compositions according to the invention also have good post-emergence herbicidal activity against a broad spectrum of economically important gramineous and broadleaf weeds.” left out

[4] = test system: Viola arvensis; assay: Post-emergence herbicidal action against Viola arvensis; settings: 100 g of a.i./ha
Experimental: as §1, §2
as §3, with “After the test plants have been left to stand in the greenhouse under optimal growth conditions for about 3 to 4 weeks, the action of the preparations is scored visually in comparison to untreated controls.” left out

[5] = test system: Bidens pilosa; assay: Post-emergence herbicidal action against Bidens pilosa
Method in brief: (§4)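 Seeds or rhizome pieces were grown in sandy loam in pots in a greenhouse, and plants were sprayed at the three-leaf stage, three weeks after sowing. Spray powders or emulsion concentrates were applied in various dosages at 300 to 800 l/ha water. Efficacy was scored visually after 3 to 4 weeks against untreated controls.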

[6] = test system: Ipomoea hederacea; assay: Post-emergence herbicidal action against Ipomoea hederacea; settings: 100 g of a.i./ha
Experimental: as §1, §2, §3

[7] = test system: Poa annua; assay: Post-emergence herbicidal action against Poa annua
Method in brief: as §4

[8] = test system: Centaurea cyano; assay: Post-emergence herbicidal action against Centaurea cyano
Method in brief: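 Formulations (spray powders or emulsion concentrates) applied at various doses onto foliage using 300 to 800 l/ha water; plants treated at three-leaf stage, three weeks post-sowing in sandy loam under greenhouse conditions.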

[9] = test system: Chenopodium album; assay: Post-emergence herbicidal action against Chenopodium album
Experimental: as §1, §2, §3

[10] = test system: Phalaris minor; assay: Post-emergence herbicidal action against Phalaris minor
Method in brief: (§5)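 Each treatment was applied at a rate expressed as g of 100% active compound per ha, and the effect was scored a given number of days later (DAT). Reference values for combinations were calculated two ways: E^A, the sum of individual effects, and E^C, Colby's expected value.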

[11] = test system: Lolium rigidum; assay: Post-emergence herbicidal action against Lolium rigidum
[12] = test system: Lolium rigidum; assay: as above; remark: listed apart in the source
[13] = test system: Phalaris minor; assay: Post-emergence herbicidal action against Phalaris minor; remark: listed apart in the source
[14] = test system: Lolium rigidum; assay: Post-emergence herbicidal action against Lolium rigidum; remark: listed apart in the source
[15] = test system: Abutilon theophrasti; assay: Post-emergence herbicidal action against Abutilon theophrasti
Method in brief: as §5

[16] = test system: Ipomoea ssp.; assay: Post-emergence herbicidal action against Ipomoea ssp.; settings: 45 DAT

C=C[C@]1(C(=O)N[C@H]2CO[C@@H](C(=O)OC)C2)CC(c2cc(F)cc(F)c2)=NO1 (relative stereo) [Compound A3, methyl rel-(2R,4R)-4-[[(5S)-3-(3,5-difluorophenyl)-5-vinyl-4H-isoxazole-5-carbonyl]amino]tetrahydrofuran-2-carboxylate]
Herbicidal action 28 DAT [%] against Panicum maximum ([1]; 100 g of a.i./ha): 82% | Herbicidal action 28 DAT against Panicum maximum ([1]; g of a.i./ha: 200, 100, 100 + 200): 82% | Herbicidal action 43 DAT [%] against Bellis perenne [2]: 0% | Herbicidal action 43 DAT [%] against Ephilobium hirsutum [3]: 77% | Herbicidal action 43 DAT [%] against Viola arvensis [4]: 50% | Herbicidal action 21 DAT [%] against Bidens pilosa ([5]; 1.7 g of a.i./ha): 10% and 0% | Herbicidal action 21 DAT against Bidens pilosa ([5]; 1.7 g of a.i./ha): 10% | Herbicidal action 21 DAT [%] against Bidens pilosa ([5]; 1.7 g of a.i./ha, post-emergence, block with (B1.14) Tembotrione): 10% | Herbicidal action 21 DAT [%] against Bidens pilosa ([5]; 1.7 g of a.i./ha, post-emergence, block with (B1.7) Mesotrione): 0% | Herbicidal action 21 DAT [%] against Bidens pilosa ([5]; 5 g of a.i./ha): 10% | Herbicidal action 21 DAT against Bidens pilosa ([5]; 5 g of a.i./ha): 10% | Herbicidal action 21 DAT [%] against Bidens pilosa ([5]; 5 g of a.i./ha, post-emergence, block with (B1.14) Tembotrione): 10% | Herbicidal action 21 DAT [%] against Bidens pilosa ([5]; 5 g of a.i./ha, post-emergence, block with (B1.7) Mesotrione): 10% | Herbicidal action 21 DAT [%] against Bidens pilosa ([5]; 15 g of a.i./ha): 50% | Herbicidal action 21 DAT [%] against Bidens pilosa ([5]; 15 g of a.i./ha, post-emergence, block with (B1.7) Mesotrione): 25% | Herbicidal action ([5]; 21 DAT, 1.7 g a.i./ha): 10% | Herbicidal action ([5]; 21 DAT, 5 g a.i./ha): 10% | Herbicidal action 21 DAT [%] against Bidens pilosa ([5]; post-emergence, 21 DAT, 1.7 g of a.i./ha): 0% | Herbicidal action 21 DAT [%] against Bidens pilosa ([5]; post-emergence, 21 DAT, 5 g of a.i./ha): 10% | Herbicidal action 21 DAT [%] against Bidens pilosa ([5]; post-emergence, 21 DAT, 15 g of a.i./ha): 25% | Herbicidal action 37 DAT against Ipomoea hederacea [6]: 8% | Herbicidal action 37 DAT [%] against Ipomoea hederacea ([6]; post-emergence): 8% | Herbicidal action 28 DAT against Poa annua L. ([7]; 1 g of a.i./ha): 15% | Herbicidal action in [%] 14 DAT against Poa annua L. ([7]; 1 g of a.i./ha): 40% and 50% | Herbicidal action in [%] 28 DAT against Poa annua L. ([7]; 1 g of a.i./ha): 15% and 20% | Herbicidal action in [%] 28 DAT against Poa annua ([7]; 1 g of a.i./ha, post-emergence): 30% | Herbicidal action in [%] 14 DAT against Poa annua L. ([7]; 4 g of a.i./ha): 85% | Herbicidal action in [%] 28 DAT against Poa annua L. ([7]; 4 g of a.i./ha): 80% | Herbicidal action ([7]; 14 DAT, 1 g a.i./ha): 50% | Herbicidal action against Poa annua L. ([7]; 14 DAT, 1 g of a.i./ha): 40% | Herbicidal action ([7]; 14 DAT, 4 g a.i./ha): 85% | Herbicidal action against Poa annua L. ([7]; 14 DAT, 16 g of a.i./ha): 85% | Herbicidal action 28 DAT against Poa annua L. ([7]; 16 g of a.i./ha): 40% | Herbicidal action in [%] 14 DAT against Poa annua L. ([7]; 16 g of a.i./ha): 85% | Herbicidal action ([7]; 28 DAT, 1 g a.i./ha): 20% | Herbicidal action against Poa annua L. ([7]; 28 DAT, 1 g of a.i./ha): 15% | Herbicidal action ([7]; 28 DAT, 4 g a.i./ha): 80% | Herbicidal action ([7]; 28 DAT, 16 g a.i./ha): 85% | Herbicidal action against Poa annua L. ([7]; 28 DAT, 16 g of a.i./ha): 40% | Herbicidal action ([7]; 28 DAT, 50 g a.i./ha): 0% | Herbicidal action in [%] 14 DAT against Poa annua L. ([7]; post-emergence, 14 DAT, 1 g of a.i./ha): 50% | Herbicidal action in [%] 14 DAT against Poa annua L. ([7]; post-emergence, 14 DAT, 4 g of a.i./ha): 85% | Herbicidal action in [%] 14 DAT against Poa annua L. ([7]; post-emergence, 14 DAT, 16 g of a.i./ha): 93% | Herbicidal action in [%] 28 DAT against Poa annua L. ([7]; post-emergence, 28 DAT, 1 g of a.i./ha): 20% | Herbicidal action in [%] 28 DAT against Poa annua L. ([7]; post-emergence, 28 DAT, 4 g of a.i./ha): 80% | Herbicidal action in [%] 28 DAT against Poa annua L. ([7]; post-emergence, 28 DAT, 16 g of a.i./ha): 85% | Herbicidal action 14 DAT against Centaurea cyanus ([8]; 1 g of a.i./ha): 20% | Herbicidal action 28 DAT against Centaurea cyanus ([8]; 1 g of a.i./ha): 10% and 0% | Herbicidal action in [%] 14 DAT against Centaurea cyanus ([8]; 1 g of a.i./ha): 30% | Herbicidal action in [%] 28 DAT against Centaurea cyanus ([8]; 1 g of a.i./ha): 10% | Herbicidal action 14 DAT against Centaurea cyanus ([8]; 4 g of a.i./ha): 50% | Herbicidal action 28 DAT against Centaurea cyanus ([8]; 4 g of a.i./ha): 20% | Herbicidal action in [%] 14 DAT against Centaurea cyanus ([8]; 4 g of a.i./ha): 50% | Herbicidal action in [%] 28 DAT against Centaurea cyanus ([8]; 4 g of a.i./ha): 50% | Herbicidal action against Centaurea cyanus ([8]; 14 DAT, 16 g of a.i./ha): 80% | Herbicidal action in [%] 14 DAT against Centaurea cyanus ([8]; 16 g of a.i./ha): 70% | Herbicidal action in [%] 28 DAT against Centaurea cyanus ([8]; 16 g of a.i./ha): 40% and 70% | Herbicidal action in [%] 28 DAT against Centaurea cyano ([8]; 16 g of a.i./ha, post-emergence): 70% | Herbicidal action against Centaurea cyanus ([8]; 28 DAT, 16 g of a.i./ha): 40% | Herbicidal action 28 DAT against Centaurea cyanus ([8]; (Z61) post-emergence, g of a.i./ha: 1, 270, 90, 1 + 270, 1 + 90): 0% | Herbicidal action 27 DAT [%] against Chenopodium album ([9]; 100 g of a.i./ha): 85% | Herbicidal action 27 DAT against Chenopodium album ([9]; g of a.i./ha: 180, 100, 100 + 180): 85% | Herbicidal action 14 DAT against Phalaris minor ([10]; 1 g of a.i./ha): 10% | Herbicidal action 28 DAT against Phalaris minor ([10]; 1 g of a.i./ha): 0% and 10% | Herbicidal action 28 DAT against Phalaris minor ([10]; 4 g of a.i./ha): 70% | Herbicidal action in [%] 14 DAT against Phalaris minor ([10]; 1 g of a.i./ha): 20% | Herbicidal action in [%] 14 DAT against Phalaris minor ([10]; 4 g of a.i./ha): 85% | Herbicidal action in [%] 14 DAT against Phalaris minor ([10]; 16 g of a.i./ha): 85% | Herbicidal action 28 DAT against Phalaris minor ([10]; 16 g of a.i./ha): 40% | Herbicidal action in [%] 28 DAT against Phalaris minor ([10]; 1 g of a.i./ha): 10% | Herbicidal action in [%] 28 DAT against Phalaris minor ([10]; 16 g of a.i./ha): 85% | Herbicidal action in [%] 14 DAT against Lolium rigidum ([11]; 1 g of a.i./ha): 35% and 40% | Herbicidal action in [%] 28 DAT against Lolium rigidum ([11]; 1 g of a.i./ha): 15% and 10% | Herbicidal action in [%] 14 DAT against Lolium rigidum ([11]; 4 g of a.i./ha): 85% | Herbicidal action in [%] 28 DAT against Lolium rigidum ([11]; 4 g of a.i./ha): 50% and 70% | Herbicidal action ([12]; 14 DAT, 1 g a.i./ha): 40% | Herbicidal action ([12]; 28 DAT, 1 g a.i./ha): 10% | Herbicidal action ([12]; 28 DAT, 4 g a.i./ha): 70% | Herbicidal action ([13]; 14 DAT, 1 g a.i./ha): 20% | Herbicidal action ([13]; 14 DAT, 4 g a.i./ha): 85% | Herbicidal action ([13]; 14 DAT, 16 g a.i./ha): 85% | Herbicidal action ([13]; 28 DAT, 1 g a.i./ha): 10% | Herbicidal action ([13]; 28 DAT, 4 g a.i./ha): 85% | Herbicidal action ([13]; 28 DAT, 16 g a.i./ha): 85% | Herbicidal action against Lolium rigidum ([14]; 14 DAT, 1 g of a.i./ha): 35% | Herbicidal action against Lolium rigidum ([14]; 28 DAT, 1 g of a.i./ha): 15% | Herbicidal action against Lolium rigidum ([14]; 28 DAT, 4 g of a.i./ha): 50% | Herbicidal action 21 DAT [%] against Abutilon theophrasti ([15]; 1.7 g of a.i./ha): 10% | Herbicidal action 21 DAT against Abutilon theophrasti ([15]; 1.7 g of a.i./ha): 0% | Herbicidal action 21 DAT against Abutilon theophrasti ([15]; 5 g of a.i./ha): 30% | Herbicidal action 21 DAT [%] against Abutilon theophrasti ([15]; 15 g of a.i./ha): 35% | Herbicidal action ([16]; 50 g a.i./ha): 40% | Herbicidal action ([16]; 100 g a.i./ha): 50%
